According to patent US8722656B2, “Cephalosporins useful as antibacterial agents” (Zoetis LLC, priority 2011, dated 2014):
Values after ≈ are worked out from the molar mass of the structure shown.

Columns and labels:
E. coli 25922 = assay: Dilution antimicrobial susceptibility test (M07-A8), E. coli; format: cell-based, Escherichia coli; details: for MIC: Escherichia coli, antibacterial activity by dilution susceptibility test, isolate 25922; for E. coli/P. multocida: selectivity for P. multocida over E. coli (ratio of the two values)
Procedure: (§1) Compounds of the present invention were tested against an assortment of Gram-negative and Gram-positive organisms using the industrial standard techniques described in Methods for Dilution Antimicrobial Susceptibility Tests for Bacteria That grow Aerobically; Approved Standard-Eighth Edition, […]-A8, Vol. 29 No. 2 Replaces […]-A7 Vol. 26 No. 2. […] When comparing the activity against these isolates with that of the marketed human health drug of cefepime (screened in the same panel), the exemplified compounds of the present invention show >200 times more selectivity over E. coli.

M. haemo 43411 = assay: Dilution antimicrobial susceptibility test (M07-A8), M. haemolytica; format: cell-based; details: Mannheimia haemolytica; antibacterial activity by dilution susceptibility test, isolate 43411
Procedure: as §1

P. multo 43719 = assay: Dilution antimicrobial susceptibility test (M07-A8), P. multocida; format: cell-based; details: Pasteurella multocida; antibacterial activity by dilution susceptibility test, isolate 43719
Procedure: as §1

Row | SMILES | MIC (E. coli 25922) [µg/mL] | MIC (P. multo 43719) [µg/mL] | E. coli/P. multocida (E. coli 25922) | MIC (M. haemo 43411) [µg/mL]
1 | CO/N=C(\C(=O)N[C@@H]1C(=O)N2C(C(=O)O)=C(Cc3cc(S(=O)(=O)NCCSC(C)=O)ccc3C)CS[C@H]12)c1csc(N)n1 [Example 20, (6R,7R)-3-(5-{[2-(acetylsulfanyl)ethyl]sulfamoyl}-2-methylbenzyl)-7-{[(2Z)-2-(2-amino-1,3-thiazol-4-yl)-2-(methoxyimino)acetyl]amino}-8-oxo-5-thia-1-azabicyclo[4.2.0]oct-2-ene-2-carboxyl is acid] | 64 (≈ 95.7 µM) | 0.25 (≈ 0.374 µM) | 256 | 0.25 (≈ 0.374 µM)
2 | CCN(CCSC(C)=O)S(=O)(=O)c1cccc(CC2=C(C(=O)O)N3C(=O)[C@@H](NC(=O)/C(=N\OC)c4csc(N)n4)[C@H]3SC2)c1 [Example 21, (6R,7R)-3-(3-{[2-(acetylsulfanyl)ethyl](ethyl)sulfamoyl}benzyl)-7-{[(2Z)-2-(2-amino-1,3-thiazol-4-yl)-2-(methoxyimino)acetyl]amino}-8-oxo-5-thia-1-azabicyclo[4.2.0]oct-2-ene-2-carboxylic acid] | 32 (≈ 46.9 µM) | 0.03 (≈ 0.0439 µM) | 1066 | 0.125 (≈ 0.183 µM)
3 | CNS(=O)(=O)c1ccc(OC)c(CC2=C(C(=O)O)N3C(=O)[C@@H](NC(=O)/C(=N\OC)c4csc(N)n4)[C@H]3SC2)c1 [Example 22, (6R,7R)-7-{[(2Z)-2-(2-amino-1,3-thiazol-4-yl)-2-(methoxyimino)acetyl]amino}-3-[2-methoxy-5-(methylsulfamoyl)benzyl]-8-oxo-5-thia-1-azabicyclo[4.2.0]oct-2-ene-2-carboxylic acid] | 64 (≈ 107 µM) | 0.25 (≈ 0.419 µM) | 256 | 0.125 (≈ 0.209 µM)
4 | CNS(=O)(=O)c1cccc(CC2=C(C(=O)O)N3C(=O)[C@@H](NC(=O)/C(=N\OC)c4csc(N)n4)[C@H]3SC2)c1 [Example 23, (6R,7R)-7-{[(2Z)-2-(2-amino-1,3-thiazol-4-yl)-2-(methoxyimino)acetyl]amino}-3-[3-(methylsulfamoyl)benzyl]-8-oxo-5-thia-1-azabicyclo[4.2.0]oct-2-ene-2-carboxylic acid] | 16 (≈ 28.2 µM) | 0.125 (≈ 0.221 µM) | 128 | 0.06 (≈ 0.106 µM)

Now those with a lower MIC (E. coli 25922), led by results:

Row | MIC (E. coli 25922) [µg/mL] | MIC (P. multo 43719) [µg/mL] | SMILES | E. coli/P. multocida (E. coli 25922) | MIC (M. haemo 43411) [µg/mL]
5 | 4 (≈ 6.89 µM) | 0.015 (≈ 0.0258 µM) | CNS(=O)(=O)c1ccc(C)c(CC2=C(C(=O)O)N3C(=O)[C@@H](NC(=O)/C(=N\OC)c4csc(N)n4)[C@H]3SC2)c1 [Example 24, (6R,7R)-7-{[(2Z)-2-(2-amino-1,3-thiazol-4-yl)-2-(methoxyimino)acetyl]amino}-3-[2-methyl-5-(methylsulfamoyl)benzyl]-8-oxo-5-thia-1-azabicyclo[4.2.0]oct-2-ene-2-carboxylic acid] | 266 | 0.008 (≈ 0.0138 µM)
6 | 8 (≈ 13.8 µM) | 0.008 (≈ 0.0138 µM) | CO/N=C(\C(=O)N[C@@H]1C(=O)N2C(C(=O)O)=C(Cc3cccc(S(=O)(=O)N(C)C)c3)CS[C@H]12)c1csc(N)n1 [Example 25, (6R,7R)-7-{[(2Z)-2-(2-amino-1,3-thiazol-4-yl)-2-(methoxyimino)acetyl]amino}-3-[3-(dimethylsulfamoyl)benzyl]-8-oxo-5-thia-1-azabicyclo[4.2.0]oct-2-ene-2-carboxylic acid] | 1000 | 0.008 (≈ 0.0138 µM)
7 | 4 (≈ 6.7 µM) | 0.015 (≈ 0.0251 µM) | CNS(=O)(=O)c1cc(CC2=C(C(=O)O)N3C(=O)[C@@H](NC(=O)/C(=N\OC)c4csc(N)n4)[C@H]3SC2)cc(OC)c1 [Example 26, (6R,7R)-7-{[(2Z)-2-(2-amino-1,3-thiazol-4-yl)-2-(methoxyimino)acetyl]amino}-3-[3-methoxy-5-(methylsulfamoyl)benzyl]-8-oxo-5-thia-1-azabicyclo[4.2.0]oct-2-ene-2-carboxylic acid] | 266 | 0.008 (≈ 0.0134 µM)
8 | 8 (≈ 13.8 µM) | 0.015 (≈ 0.0258 µM) | CNS(=O)(=O)c1cc(C)cc(CC2=C(C(=O)O)N3C(=O)[C@@H](NC(=O)/C(=N\OC)c4csc(N)n4)[C@H]3SC2)c1 [Example 27, (6R,7R)-7-{[(2Z)-2-(2-amino-1,3-thiazol-4-yl)-2-(methoxyimino)acetyl]amino}-3-[3-methyl-5-(methylsulfamoyl)benzyl]-8-oxo-5-thia-1-azabicyclo[4.2.0]oct-2-ene-2-carboxylic acid] | 533 | 0.008 (≈ 0.0138 µM)
9 | 4 (≈ 7.07 µM) | 0.03 (≈ 0.053 µM) | CO/N=C(\C(=O)N[C@@H]1C(=O)N2C(C(=O)O)=C(Cc3ccc(S(C)(=O)=O)cc3C)CS[C@H]12)c1csc(N)n1 [Example 28, (6R,7R)-7-{[(2Z)-2-(2-amino-1,3-thiazol-4-yl)-2-(methoxyimino)acetyl]amino}-3-[2-methyl-4-(methylsulfonyl)benzyl]-8-oxo-5-thia-1-azabicyclo[4.2.0]oct-2-ene-2-carboxylic acid] | 133 | 0.06 (≈ 0.106 µM)
